The values below are quoted from earlier work in patent US20100168247A1, “SOLID COMPOSITES OF A CALCIUM RECEPTOR-ACTIVE COMPOUND” (TEVA PHARMACEUTICAL INDUSTRIES LTD., priority 2006, published 2010).

For the compound `C[C@@H](NCCCc1cccc(C(F)(F)F)c1)c1cccc2ccccc12.Cl` [cinacalcet, (R)—N-[1-(1-naphthyl)ethyl]-3-[3-(trifluoromethyl)phenyl]propan-1-amine hydrochloride], the solubility result (pH 1) is recorded as “about 0.1 mg/ml”. Also, the solubility in water entry (pH 7) was “less than 1 μg/ml”.
